# Reference: article PMC6349869, “The palladacycle complex AJ-5 induces apoptotic cell death while reducing autophagic flux in rhabdomyosarcoma cells” (Cell Death Discovery, 2019)
# Columns and labels:
# Format in all cases: cell-based, human
# RH30 cells = experiment: MTT cell viability assay, RH30; conditions: RH30 (aRMS), 48 h
# Experimental: (§1) RH30 human aRMS cells (kindly provided by Associate Professor Judith Davie, Southern Illinois University), AX-OH-1 human aRMS and FL-OH-1 human eRMS cells (kindly provided by Professor Stefan Bath, University of Cape Town) were cultured in Roswell Park Memorial Institute Medium (RPMI)-1640 (Sigma Aldrich, Missouri, USA). […] Cell morphology was monitored using an Olympus CKX41 inverted microscope (MSAC Ltd, UK) and imaged with an EVOS™ XL AMEX1000 Core Imaging System (Thermo Fisher Scientific, Massachusetts, USA).
# (§2) Cells were seeded in 96-well plates and treated the next day with a range of AJ-5 concentrations (0.1–1.0 μM) or vehicle ([…]) for 48 h. Cell viability was measured using the 3-(4,5-dimethylthiazol-2-yl)-2,5-diphenyl-trazolium bromide (MTT) assay (11465007001; Sigma Aldrich) according to the manufacturer’s instructions. Mean cell viability was calculated as a percentage of the mean vehicle control. At least three independent experiments in quadruplicate were performed from which the half maximal inhibitory concentration (IC50) was determined using GraphPad Prism version 6.0 (GraphPad Software, California, USA). The selectivity index (SI) was determined by dividing the IC50 of a normal cell line by the IC50 of a cancer cell line.
# RD cells [1] = experiment: MTT cell viability assay, RD; conditions: RD (eRMS), 48 h
# Experimental: as §1, §2
# RD cells [2] = experiment: Single-cell autophagosome flux analyses; conditions: IC50 48 h
# Experimental: The autophagosome flux was calculated from the rate of autophagosome accumulation as previously described. Briefly, this was determined after the complete inhibition of fusion between autophagosomes and lysosomes using 400 nM bafilomycin A1 (B0025; LKT Laboratories Inc., Minnesota, USA).
# Cells were transfected with a GFP-LC3 construct using Lipofectamine 3000 (L3000001; Thermo Fisher Scientific) according to the manufacturer’s instructions and maintained for 2 days in order to achieve high levels of GFP-LC3 expression.
# Autophagosome, autolysosome and lysosome pool size was assessed by supplementing the culture media with 25 nM LysoTracker Red (L7528; Thermo Fisher Scientific) 2 h prior to image acquisition. An LSM 780 confocal with ELYRA S.1 Superresolution platform (Carl Zeiss) was used for image acquisition. The eight-chamber dish was placed in a heated chamber maintained at 5% CO2 that encased the microscope objective. An LCI Plan-Apochromat ×63/1.4 oil DIC M27 objective was used and samples were excited with an Argon multiline laser 25 mW at 488 and 514 nm with appropriate beam splitters and GaAsP detector 32+2 PMT. Multiple z layers were acquired with […] step width. Laser power and electron gain were set to achieve an optimal signal to noise ratio without causing photo-toxicity. […]
compound,measurement,setting,value
CC(C)c1cccc(C(C)C)c1[N+]1=Cc2cccc[c]2[Pd-2]1([Cl])[P+](CC[P+](c1ccccc1)(c1ccccc1)[Pd-2]1([Cl])[c]2ccccc2C=[N+]1c1c(C(C)C)cccc1C(C)C)(c1ccccc1)c1ccccc1 (stereo not drawn) [AJ-5],IC50,RH30 cells,≤ 200 nM
same,IC50,RD cells [1],≤ 200 nM
same,Autolysosome pool size and autophagosome flux J,RD cells [2],significantly decreased
